Where “and” joins values, the source holds several entries; their conditions need not be identical. Identical values can stand only once. Blank lines part the entries; values can stand above or below the compound they belong to.
Experiments:
[1] = Inhibition of lipid peroxidation of linoleic acid induced by AAPH radical; conditions: 100 μM
Experimental: (§1) In this work, the carboxamides 3a–3u, the quinolinone–cinnamic or benzoic acid hybrids 11a–11g and the reverse amides 16a–16c were tested for their antioxidant activity via five in vitro techniques; (i) the interaction with the stable free radical 2,2-diphenyl-1-picrylhydrazyl (DPPH); (ii) the inhibition of lipid peroxidation; (iii) the hydroxyl radical scavenging ability; (iv) the 2,2-azino-bis(3-ethylbenzothiazoline-6-sulfonic acid (ABTS) radical cation (ABTS·^+) reduction; and (v) the superoxide anion radical scavenging ability.
The assay for the determination of the inhibition of linoleic acid peroxidation induced by the free radical initiator […](2-amidinopropane) dihydrochloride (AAPH) was performed according to the methods of Hadjipavlou-Litina et al., which we have also used in our previous works.

[2] = biological target: T1, soybean lipoxygenase (Glycine max, UniProt P08170); assay: Soybean LOX inhibition in vitro (UV absorbance-based assay); type: biochemical
T1 construct: purchased Sigma Chemical, Co. (St. Louis, MO, USA)
T1 sequence (P08170 1-839): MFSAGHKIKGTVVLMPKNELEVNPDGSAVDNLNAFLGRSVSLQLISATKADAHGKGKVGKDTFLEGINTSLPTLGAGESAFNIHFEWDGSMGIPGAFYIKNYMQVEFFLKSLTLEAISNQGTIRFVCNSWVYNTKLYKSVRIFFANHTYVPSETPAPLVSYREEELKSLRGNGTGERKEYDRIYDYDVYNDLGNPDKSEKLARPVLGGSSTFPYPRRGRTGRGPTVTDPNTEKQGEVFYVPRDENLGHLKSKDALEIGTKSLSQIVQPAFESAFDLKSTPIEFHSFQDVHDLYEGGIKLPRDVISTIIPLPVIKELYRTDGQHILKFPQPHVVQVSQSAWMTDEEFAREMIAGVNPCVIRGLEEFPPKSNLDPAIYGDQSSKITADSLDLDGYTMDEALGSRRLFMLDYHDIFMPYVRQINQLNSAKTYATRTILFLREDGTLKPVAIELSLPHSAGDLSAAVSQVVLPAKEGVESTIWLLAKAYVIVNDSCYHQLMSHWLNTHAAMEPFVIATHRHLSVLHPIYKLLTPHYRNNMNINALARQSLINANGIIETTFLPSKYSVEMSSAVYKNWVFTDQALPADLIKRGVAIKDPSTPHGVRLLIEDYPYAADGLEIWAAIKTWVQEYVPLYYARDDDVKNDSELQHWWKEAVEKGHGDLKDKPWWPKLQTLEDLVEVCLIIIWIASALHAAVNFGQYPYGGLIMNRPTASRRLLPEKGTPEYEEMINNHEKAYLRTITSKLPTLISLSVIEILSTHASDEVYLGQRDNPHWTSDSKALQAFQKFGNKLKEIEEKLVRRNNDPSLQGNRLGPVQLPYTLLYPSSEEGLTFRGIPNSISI
Experimental: For this study, the UV absorbance-based soybean LOX assay was used.
The assay for the determination of the inhibition of soybean LOX was performed according to the methods of Hadjipavlou-Litina et al., which we have also used in our previous works.

[3] = Interaction with the stable free radical DPPH (reducing activity); conditions: 100 μM
Experimental: as §1

IC50 [2]: 57.5 µM
Structure (SMILES): CCn1c(=O)c(C(=O)NCCNC(=O)c2ccccc2)c(O)c2ccccc21 [Compound 11c, N-(2-benzamidoethyl)-1-ethyl-4-hydroxy-2-oxo-1,2-dihydroquinoline-3-carboxamide]
Inhibition of Lipid Peroxidation of Linoleic Acid Induced by AAPH Radical (%) [1]: 91.0%
Interaction with the Free Radical DPPH (%) ([3]; 20 min): 2.0%
Interaction with the Free Radical DPPH (%) ([3]; 60 min): 2.0%

inhibition at 100 µM ([2]; 0.1 mM): 5%
Structure (SMILES): CCn1c(=O)c(C(=O)NCCNC(=O)/C=C/c2ccc(OC(C)=O)cc2)c(O)c2ccccc21 [Compound 11d, (E)-4-(3-((2-(1-ethyl-4-hydroxy-2-oxo-1,2-dihydroquinoline-3-carboxamido)ethyl)amino)-3-oxoprop-1-en-1-yl)phenyl acetate]
Inhibition of Lipid Peroxidation of Linoleic Acid Induced by AAPH Radical (%) [1]: 94.0%
Interaction with the Free Radical DPPH (%) ([3]; 20 min): 3.0%
Interaction with the Free Radical DPPH (%) ([3]; 60 min): 2.0%

IC50 [2]: 52 µM and 52.5 µM
Structure (SMILES): CCn1c(=O)c(C(=O)NCCNC(=O)/C=C/c2ccc(OC(C)=O)c(OC)c2)c(O)c2ccccc21 [Compound 11e, (E)-4-(3-((2-(1-ethyl-4-hydroxy-2-oxo-1,2-dihydroquinoline-3-carboxamido)ethyl)amino)-3-oxoprop-1-en-1-yl)-2-methoxyphenyl acetate]
Inhibition of Lipid Peroxidation of Linoleic Acid Induced by AAPH Radical (%) [1]: 97.0%
Interaction with the Free Radical DPPH (%) ([3]; 20 min): 3.0%
Interaction with the Free Radical DPPH (%) ([3]; 60 min): 5.0%

IC50 [2]: 70 µM
Structure (SMILES): CCn1c(=O)c(C(=O)NCCNC(=O)/C=C/c2ccc(OC)cc2)c(O)c2ccccc21 [Compound 11f, (E)-1-ethyl-4-hydroxy-N-(2-(3-(4-methoxyphenyl)acrylamido)ethyl)-2-oxo-1,2-dihydroquinoline-3-carboxamide]
Inhibition of Lipid Peroxidation of Linoleic Acid Induced by AAPH Radical (%) [1]: 93.0%
Interaction with the Free Radical DPPH (%) ([3]; 20 min): 2.0%
Interaction with the Free Radical DPPH (%) ([3]; 60 min): 4.0%

IC50 [2]: 85.5 µM
Structure (SMILES): CCn1c(=O)c(C(=O)NCCNC(=O)/C=C/c2ccccc2)c(O)c2ccccc21 [Compound 11g, (E)-N-(2-cinnamamidoethyl)-1-ethyl-4-hydroxy-2-oxo-1,2-dihydroquinoline-3-carboxamide]
Inhibition of Lipid Peroxidation of Linoleic Acid Induced by AAPH Radical (%) [1]: 97.0%
Interaction with the Free Radical DPPH (%) ([3]; 20 min): no
Interaction with the Free Radical DPPH (%) ([3]; 60 min): 2.0%

IC50 [2]: 100 µM
Structure (SMILES): Cc1ccc(C(=O)Nc2c(O)c3ccccc3n(C)c2=O)cc1 [Compound 16b, N-(4-hydroxy-1-methyl-2-oxo-1,2-dihydroquinolin-3-yl)-4-methylbenzamide]
Inhibition of Lipid Peroxidation of Linoleic Acid Induced by AAPH Radical (%) [1]: 88.0%
Interaction with the Free Radical DPPH (%) ([3]; 20 min): 27.0%
Interaction with the Free Radical DPPH (%) ([3]; 60 min): 32.0%

The remaining lines, values behind:

Structure (SMILES): CCn1c(=O)c(C(=O)NCCNC(=O)c2ccc(OC(C)=O)cc2)c(O)c2ccccc21 [Compound 11a, 4-((2-(1-ethyl-4-hydroxy-2-oxo-1,2-dihydroquinoline-3-carboxamido)ethyl)carbamoyl)phenyl acetate]
Inhibition of Lipid Peroxidation of Linoleic Acid Induced by AAPH Radical (%) [1]: 89.0%
IC50 [2]: 61 µM
Interaction with the Free Radical DPPH (%) ([3]; 20 min): 1.0%
Interaction with the Free Radical DPPH (%) ([3]; 60 min): 4.4%

Structure (SMILES): CCn1c(=O)c(C(=O)NCCNC(=O)c2cc(OC)c(OC(C)=O)c(OC)c2)c(O)c2ccccc21 [Compound 11b, 4-((2-(1-ethyl-4-hydroxy-2-oxo-1,2-dihydroquinoline-3-carboxamido)ethyl)carbamoyl)-2,6-dimethoxyphenyl acetate]
Inhibition of Lipid Peroxidation of Linoleic Acid Induced by AAPH Radical (%) [1]: 93.8%
IC50 [2]: 70 µM
Interaction with the Free Radical DPPH (%) ([3]; 20 min): 3.0%
Interaction with the Free Radical DPPH (%) ([3]; 60 min): no

Structure (SMILES): CCCC(=O)Nc1c(O)c2ccccc2n(C)c1=O [Compound 16a, N-(4-hydroxy-1-methyl-2-oxo-1,2-dihydroquinolin-3-yl)butyramide]
Inhibition of Lipid Peroxidation of Linoleic Acid Induced by AAPH Radical (%) [1]: 83.0%
IC50 [2]: 81 µM
Interaction with the Free Radical DPPH (%) ([3]; 20 min): 24.0%
Interaction with the Free Radical DPPH (%) ([3]; 60 min): 31.0%

Structure (SMILES): C[C@H](Cc1ccc(O)c(O)c1)[C@@H](C)Cc1ccc(O)c(O)c1 [NDGA, nordihydroguaiaretic acid, reference compound]
Interaction with the Free Radical DPPH (%) ([3]; 20 min): 83.0%
Interaction with the Free Radical DPPH (%) ([3]; 60 min): 94.0%
